Where a name gives a salt, the structure may show the parent alone.

For orientation: melting point means the temperature of the solid-liquid transition. Consider `CCOC(=O)c1cc(N)n(-c2cc(C(=O)Nc3cc(C(C)(C)C)cc(NS(C)(=O)=O)c3OC)ccc2C)n1` (as salt: TFA) [Example 1, 5-amino-1-[5-(5-tert-butyl-3-methanesulfonylamino-2-methoxy-phenylcarbamoyl)-2-methyl-phenyl]-1H-pyrazole-3-carboxylic acid ethyl ester], for which the melting point was 104 to 111 °C (dec.). `CCOC(=O)c1cnn(-c2cc(C(=O)Nc3cc(C(C)(C)C)cc(NS(C)(=O)=O)c3OC)ccc2C)c1` [Example 2, 1-[5-(5-tert-butyl-3-methanesulfonylamino-2-methoxy-phenylcarbamoyl)-2-methyl-phenyl]-1H-pyrazole-4-carboxylic acid ethyl ester] had a melting point of 125 to 130 °C. Consider `COc1c(NC(=O)c2ccc(C)c(-n3cc(C(=O)NCc4cccnc4)cn3)c2)cc(C(C)(C)C)cc1NS(C)(=O)=O` [Example 4, 1-[5-(5-tert-Butyl-3-methanesulfonylamino-2-methoxy-phenylcarbamoyl)-2-methyl-phenyl]-1H-pyrazole-4-carboxylic acid (pyridin-3-ylmethyl)-amide], for which the melting point lay in the range of 127 to 133 °C.

The values above are taken from patent US7485657B2, “Anti-cytokine heterocyclic compounds” (Boehringer Ingelheim Pharmaceuticals, Inc., priority 2004, dated 2009).
